Read-outs that look alike come from different tables or passages of the source.
Key:
[1] = target: human norepinephrine transporter (Homo sapiens (Human), UniProt P23975); assay: Human NET (norepinephrine transporter) uptake assay; format: cell-based; details: read-out: hNET Ki
Procedure: This protocol was designed to measure inhibition of uptake by the human norepinephrine transporter. […] The Assay Buffer (AB) was 1×HBSS and 0.02 M HEPES.
(§1) The HEK293F cells were transfected with the human norepinephrine transporter and frozen in 1 mL aliquots at about 1E+07 cells/mL. On the day of the experiment, the cells were removed from −80° C. or liquid nitrogen and thawed in a room temperature water bath. The cells were dilute to about 1-2E+06 with Freestyle medium. A 1 mL sample (1:2 dilution) was prepared, and the cells were counted. The cells were spun at 1100 rpm for 5 minutes, and the medium was aspirated off. The cells were resuspend in medium at 1.5E+06 cells/mL for about 60,000 cells per well. 40 μL of cells were dispensed per well in the Biocoat plates. The plates were spun at 1100 rpm for 1 minute to improve homogeneity of the cell layer and were incubated at 37° C. for a minimum of 3 hours.
(§2) 12 μL of test compound (10 mM) in DMSO was added to the wells, and nomifensine was used as a control. […] The neurotransmitter transporter dye was prepared in AB prior to use.
(§3) Due to the proprietary nature of the dye formulation, all dye concentrations were expressed as a percentage of the vendor-recommended dye reconstitution. Thus, the above calculations were valid when both [dye] and Km were expressed in the same units (%). Compounds were tested in triplicate (n=3).

CYP2D6 = CYP2D6 (Homo sapiens (Human), UniProt P10635); assay: Cytochrome P450 inhibition assay, recombinant CYP2D6 (MAMC substrate); format: in vitro ADME; details: recombinant enzyme
CYP2D6, sequence (P10635 whole entry): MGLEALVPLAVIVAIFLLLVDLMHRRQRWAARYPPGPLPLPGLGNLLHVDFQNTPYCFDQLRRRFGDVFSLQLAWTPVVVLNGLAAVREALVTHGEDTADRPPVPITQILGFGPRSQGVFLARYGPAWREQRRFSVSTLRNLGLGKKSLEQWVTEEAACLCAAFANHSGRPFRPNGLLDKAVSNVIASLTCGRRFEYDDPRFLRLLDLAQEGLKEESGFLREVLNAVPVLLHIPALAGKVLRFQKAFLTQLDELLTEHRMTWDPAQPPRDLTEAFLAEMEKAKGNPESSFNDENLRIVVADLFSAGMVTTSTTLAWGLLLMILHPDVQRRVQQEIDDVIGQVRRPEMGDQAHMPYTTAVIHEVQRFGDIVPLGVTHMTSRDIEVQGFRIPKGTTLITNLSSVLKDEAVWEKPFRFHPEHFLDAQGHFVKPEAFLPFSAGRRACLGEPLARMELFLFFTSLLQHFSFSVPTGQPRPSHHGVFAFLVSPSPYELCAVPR
Procedure: (§4) Recombinant enzymes, 3A4 and 2D6, generated using the ABL yeast expression system were used. […] The assay mixture also included K2HPO4 (pH 7.4; conc. 0.1 M) and NADPH (conc. 1 mM). The incubation time was 30 minutes, and the reference inhibitor was A-naphthoflavone. For CYP2D6, the enzyme amount was 2 pmol per well, and the substrate (7-methoxy-4-(aminomethyl)-coumarin; MAMC) was used at 20 μM. The assay mixture also included K2HPO4 (pH 7.4; conc. 0.1 M) and NADPH (conc. 0.06 mM). The incubation time was 35 minutes, and the reference inhibitor was quinidine.
(§5) Briefly, 0.6 μL of serially diluted compound was added to 75 μL water. 10 μL of diluted compound in water was then added to each assay plate. 20 μL of a K2HPO4, enzyme, and substrate mixture was added. After 10 minutes of room temperature pre-incubation, 10 μL of NADPH was added, and the plates were placed at 37° C. for 30 or 35 minutes depending on the enzyme being tested. After the incubation was complete, 20 μL of 0.1% Tris/ACN was added to the plate. The plate was read on a FluorStar fluorescence plate reader.

CYP3A4 = CYP3A4 (Homo sapiens (Human), UniProt P08684); assay: Cytochrome P450 inhibition assay, recombinant CYP3A4 (BFC substrate); format: in vitro ADME; details: recombinant enzyme
CYP3A4, sequence (P08684 whole entry): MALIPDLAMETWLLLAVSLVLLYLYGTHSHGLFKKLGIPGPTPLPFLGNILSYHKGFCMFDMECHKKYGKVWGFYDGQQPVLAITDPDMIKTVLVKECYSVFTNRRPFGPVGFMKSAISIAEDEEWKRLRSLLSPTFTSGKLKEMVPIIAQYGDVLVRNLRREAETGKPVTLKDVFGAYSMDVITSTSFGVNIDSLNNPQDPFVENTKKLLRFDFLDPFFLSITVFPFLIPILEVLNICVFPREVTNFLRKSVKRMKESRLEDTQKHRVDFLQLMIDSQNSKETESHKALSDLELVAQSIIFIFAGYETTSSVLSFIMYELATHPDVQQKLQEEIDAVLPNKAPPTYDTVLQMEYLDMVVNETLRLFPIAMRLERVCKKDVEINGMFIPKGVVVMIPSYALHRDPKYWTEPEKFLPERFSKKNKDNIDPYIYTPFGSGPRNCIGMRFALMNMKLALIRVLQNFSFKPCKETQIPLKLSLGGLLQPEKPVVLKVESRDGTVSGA
Procedure: as §4, §5

[2] = pKa of basic centres (Table 1); format: physicochemical
[3] = target: human serotonin transporter (Homo sapiens (Human), UniProt P31645); assay: Human SERT (serotonin transporter) uptake assay; format: cell-based; details: read-out: hSERT Ki
human serotonin transporter, sequence (P31645 whole entry): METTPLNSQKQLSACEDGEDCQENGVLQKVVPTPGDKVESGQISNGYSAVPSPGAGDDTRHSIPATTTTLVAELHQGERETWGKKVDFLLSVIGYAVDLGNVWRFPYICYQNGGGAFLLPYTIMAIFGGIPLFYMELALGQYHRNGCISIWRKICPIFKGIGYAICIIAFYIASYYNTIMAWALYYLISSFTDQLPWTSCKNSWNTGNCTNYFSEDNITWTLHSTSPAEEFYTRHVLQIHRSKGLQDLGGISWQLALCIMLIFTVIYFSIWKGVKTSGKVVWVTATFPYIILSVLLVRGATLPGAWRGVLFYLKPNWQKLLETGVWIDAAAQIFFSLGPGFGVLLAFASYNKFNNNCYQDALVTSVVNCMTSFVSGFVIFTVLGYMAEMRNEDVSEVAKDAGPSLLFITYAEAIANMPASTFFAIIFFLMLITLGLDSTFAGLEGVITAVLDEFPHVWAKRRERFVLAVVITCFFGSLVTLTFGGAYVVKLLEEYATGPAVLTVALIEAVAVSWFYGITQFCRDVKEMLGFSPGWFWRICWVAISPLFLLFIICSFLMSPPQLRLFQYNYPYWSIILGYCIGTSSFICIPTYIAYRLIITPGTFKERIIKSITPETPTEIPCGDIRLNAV
Procedure: This protocol was designed to measure inhibition of uptake by the human serotonin transporter. […] The Assay Buffer (AB) was […] and 0.02 M HEPES.
as §1, with “serotonin” for “norepinephrine”
12 μL of test compound (10 mM) in DMSO was added to the wells, and nomifensine was used as a control. Fluoxetine (final assay concentration of 10 μM) was used for background signal. The neurotransmitter transporter dye was prepared in AB prior to use.
as §3

[4] = target: human dopamine transporter (Homo sapiens (Human), UniProt Q01959); assay: Human DAT (dopamine transporter) uptake assay; format: cell-based; details: read-out: hDAT Ki
human dopamine transporter, sequence (Q01959 whole entry): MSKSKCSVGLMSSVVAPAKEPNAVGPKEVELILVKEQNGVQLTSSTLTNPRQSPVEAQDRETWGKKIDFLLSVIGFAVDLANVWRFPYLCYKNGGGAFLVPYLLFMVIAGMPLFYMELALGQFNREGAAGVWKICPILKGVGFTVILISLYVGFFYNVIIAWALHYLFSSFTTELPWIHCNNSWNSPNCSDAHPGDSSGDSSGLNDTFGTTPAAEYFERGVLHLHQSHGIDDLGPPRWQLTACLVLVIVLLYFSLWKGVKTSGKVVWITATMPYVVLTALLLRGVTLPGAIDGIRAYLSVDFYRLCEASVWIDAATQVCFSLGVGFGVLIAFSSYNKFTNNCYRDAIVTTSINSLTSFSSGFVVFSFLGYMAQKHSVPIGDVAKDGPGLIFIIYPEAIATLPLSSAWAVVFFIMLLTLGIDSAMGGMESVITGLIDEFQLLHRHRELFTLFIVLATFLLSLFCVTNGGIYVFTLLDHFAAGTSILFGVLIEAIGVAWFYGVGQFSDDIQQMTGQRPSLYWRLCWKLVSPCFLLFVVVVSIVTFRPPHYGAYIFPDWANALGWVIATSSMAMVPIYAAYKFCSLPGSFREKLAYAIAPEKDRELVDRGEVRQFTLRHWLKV
Procedure: This protocol was designed to measure inhibition of uptake by the human dopamine transporter. […] The Assay Buffer (AB) was 1×HBSS and 0.02 M HEPES.
as §1, with “dopamine” for “norepinephrine”
as §2
Due to the proprietary nature of the dye formulation, all dye concentrations were expressed as a percentage of the vendor-recommended dye reconstitution. Thus, the above calculations were valid when both [dye] and K1 were expressed in the same units (%). Compounds were tested in triplicate (n=3).

[5] = first base, e.g., an aliphatic primary, secondary, or tertiary amine, read-out: pKa (Base 1)
[6] = second base in the same molecule (if present), read-out: pKa (Base 2)

human norepinephrine transporter, sequence (P23975 whole entry): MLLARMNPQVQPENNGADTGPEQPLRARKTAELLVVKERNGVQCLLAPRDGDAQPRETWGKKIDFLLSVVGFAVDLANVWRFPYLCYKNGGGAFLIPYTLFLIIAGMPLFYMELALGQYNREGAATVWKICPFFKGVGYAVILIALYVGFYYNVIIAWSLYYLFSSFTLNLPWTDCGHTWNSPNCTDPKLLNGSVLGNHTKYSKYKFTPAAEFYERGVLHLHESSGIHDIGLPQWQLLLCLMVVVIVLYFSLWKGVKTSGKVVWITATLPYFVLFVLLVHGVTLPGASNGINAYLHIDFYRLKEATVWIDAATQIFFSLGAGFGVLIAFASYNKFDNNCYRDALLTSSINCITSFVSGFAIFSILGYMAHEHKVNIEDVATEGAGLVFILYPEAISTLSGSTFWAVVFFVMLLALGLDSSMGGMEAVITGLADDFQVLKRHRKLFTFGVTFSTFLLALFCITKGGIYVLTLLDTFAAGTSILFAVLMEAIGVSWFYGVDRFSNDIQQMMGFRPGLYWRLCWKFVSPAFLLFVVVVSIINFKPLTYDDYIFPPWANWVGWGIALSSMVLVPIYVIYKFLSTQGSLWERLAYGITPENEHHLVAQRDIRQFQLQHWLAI

## CNC[C@H](c1ccc2ccccc2c1)[C@H](O)c1cc(F)cc(F)c1 (racemic) [Compound 41]
[1]
  Ki: 3.2 nM
CYP2D6
  IC50: 130 nM
CYP3A4
  IC50: 19000 nM
[2]; [5]
  pKa: 9.6
[3]
  Ki: 52.5 nM
[4]
  Ki: 10.6 nM

## CNC[C@H](c1ccc(OC)c(C)c1)[C@H](O)c1ccccc1 (racemic) [Compound 54]
[1]
  Ki: 4.5 nM
[2]; [5]
  pKa: 10
[3]
  Ki: 2.4 nM
[4]
  Ki: 971 nM

## CNCC(Cc1cccnc1)c1ccc(Cl)c(Cl)c1 (racemic) [Compound 80]
[2]; [5]
  pKa: 9.6
[2]; [6]
  pKa: 5.2
[3]
  Ki: 34.7 nM
[4]
  Ki: 52.2 nM

## CN(C)C[C@H](c1ccc(Cl)c(Cl)c1)[C@H](O)c1ccccc1 (racemic) [Compound 105]
[1]
  Ki: 64.6 nM
CYP2D6
  IC50: 2100 nM
CYP3A4
  IC50: ≥ 20000 nM
[2]; [5]
  pKa: 8.8
[3]
  Ki: 138 nM
[4]
  Ki: 18.1 nM

## CNC[C@H](c1ccc(-c2ccccc2)cc1)[C@H](O)c1ccccc1 (racemic) [Compound 113]
[1]
  Ki: 167 nM
CYP2D6
  IC50: 220 nM
CYP3A4
  IC50: 16000 nM
[2]; [5]
  pKa: 9.8
[3]
  Ki: 5.2 nM
[4]
  Ki: 1570 nM

## CNC[C@H](c1ccc(Cl)cc1)[C@H](O)c1ccccc1 (racemic) [Compound 148]
[1]
  Ki: 8.5 nM
[2]; [5]
  pKa: 9.7
[3]
  Ki: 191 nM
[4]
  Ki: 114 nM

## CNC[C@H](c1ccc(Br)cc1)[C@H](O)c1ccccc1 (racemic) [Compound 149]
[1]
  Ki: 7.7 nM
[2]; [5]
  pKa: 9.7
[3]
  Ki: 119 nM
[4]
  Ki: 129 nM

## CNC[C@@H](c1ccc(Br)c(Cl)c1)[C@H](O)c1ccccc1 (racemic) [Compound 150]
[1]
  Ki: 6.3 nM
[2]; [5]
  pKa: 9.4
[3]
  Ki: 51.5 nM
[4]
  Ki: 31.8 nM

## CNC[C@H](c1ccc(Cl)c(Cl)c1)[C@H](O)c1ccncc1 (racemic) [Compound 155]
[1]
  Ki: 17.8 nM
CYP2D6
  IC50: 1400 nM
CYP3A4
  IC50: ≥ 20000 nM
[2]; [5]
  pKa: 9.3
[2]; [6]
  pKa: 5.3
[3]
  Ki: 73.7 nM
[4]
  Ki: 46.6 nM

## CNC[C@H](c1ccc2ccccc2c1)[C@H](O)c1cc(F)cc(F)c1 (single isomer, unassigned) [Compound 37]
[1]
  Ki: 3 nM
[2]; [5]
  pKa: 9.6
[3]
  Ki: 54.6 nM
[4]
  Ki: 63.6 nM

## CNC[C@H](c1ccc2ccccc2c1)[C@H](O)c1ccc(Cl)s1 (single isomer, unassigned) [Compound 58]
[1]
  Ki: 5.1 nM
CYP2D6
  IC50: 120 nM
CYP3A4
  IC50: 9600 nM
[2]; [5]
  pKa: 9.7
[3]
  Ki: 5.9 nM
[4]
  Ki: 127 nM

## O[C@@H](c1ccccc1)[C@@H](CNCC(F)(F)F)c1ccc2ccccc2c1 (single isomer, unassigned) [Compound 130]
[1]
  Ki: 4570 nM
CYP2D6
  IC50: 3700 nM
[2]; [5]
  pKa: 4.6
[3]
  Ki: 3370 nM
[4]
  Ki: 87.3 nM

## CNC[C@H](c1ccc2ccccc2c1)[C@@H](O)c1ccncc1Cl [Compound 7]
[1]
  Ki: 1.4 nM
[2]; [5]
  pKa: 9.5
[2]; [6]
  pKa: 3
[3]
  Ki: 3.6 nM
[4]
  Ki: 6.6 nM

## CNC[C@H](c1ccc2ccccc2c1)[C@H](OCC(=O)NC1CCC1)c1ccccc1 [Compound 8]
[1]
  Ki: 1.4 nM
[2]; [5]
  pKa: 9.6
[3]
  Ki: 1.3 nM
[4]
  Ki: 10.8 nM

## CNCC(CCc1ccccc1)[C@@H](O)c1ccccc1 (stereo partly drawn) [Compound 27]
[1]
  Ki: 2.3 nM
[2]; first base, e.g., an aliphatic primary, secondary, or tertiary amine
  pKa (Base 1): 10.1
[3]
  Ki: 252 nM
[4]
  Ki: 96.7 nM

## CNC[C@H](c1ccc2ccccc2c1)[C@H](OCc1cccn(C)c1=O)c1ccccc1 [Compound 31]
[1]
  Ki: 2.4 nM
[2]; [5]
  pKa: 9.6
[3]
  Ki: 1.9 nM
[4]
  Ki: 24.6 nM

## CNCC(c1ccc2ccccc2c1)C(OC)c1ccccc1 (stereo not drawn) [Compound 38]
[1]
  Ki: 3.1 nM
[2]; [5]
  pKa: 9.7
[3]
  Ki: 16.9 nM
[4]
  Ki: 49.9 nM

## CNC[C@H](c1ccc2ccccc2c1)[C@H](OCC(=O)Nc1ccccc1)c1ccccc1 [Compound 45]
[1]
  Ki: 3.3 nM
[2]; [5]
  pKa: 9.7
[3]
  Ki: 2.4 nM
[4]
  Ki: 8.9 nM

## CNC[C@H](c1ccc2ccccc2c1)[C@H](OC)c1ccccc1 [Compound 46]
[1]
  Ki: 3.4 nM
[2]; [5]
  pKa: 9.7
[3]
  Ki: 24.2 nM
[4]
  Ki: 37.5 nM

## CNC[C@H](c1ccc2ccccc2c1)[C@H](O)c1cccs1 [Compound 47]
[2]; [5]
  pKa: 9.7
[3]
  Ki: 2.2 nM
[4]
  Ki: 15 nM

## CNC[C@H](c1ccc2ccccc2c1)[C@H](OCC(=O)NCCOC)c1ccccc1 [Compound 51]
[1]
  Ki: 3.9 nM
[2]; [5]
  pKa: 9.6
[3]
  Ki: 2.6 nM
[4]
  Ki: 141 nM

## CNC[C@@H](Cc1cccnc1)c1ccc(Cl)c(Cl)c1 [Compound 59]
[2]; [5]
  pKa: 9.6
[2]; [6]
  pKa: 5.2
[3]
  Ki: 35.6 nM
[4]
  Ki: 112 nM

## CNC[C@H](c1ccc2ccccc2c1)[C@H](OCC(=O)NCC(F)(F)F)c1ccccc1 [Compound 68]
[1]
  Ki: 8.4 nM
[2]; [5]
  pKa: 9.6
[3]
  Ki: 29.7 nM
[4]
  Ki: 55.5 nM

## CNC[C@H](c1ccc2ccccc2c1)[C@H](OCC(=O)N(C)OC)c1ccccc1 [Compound 71]
[1]
  Ki: 10 nM
[2]; [5]
  pKa: 9.6
[3]
  Ki: 4.4 nM
[4]
  Ki: 17.9 nM

## CNC[C@H](c1ccc2ccccc2c1)[C@H](OCc1cccc(=O)n1C)c1ccccc1 [Compound 79]
[1]
  Ki: 14.4 nM
[2]; [5]
  pKa: 9.7
[3]
  Ki: 6.4 nM
[4]
  Ki: 73.3 nM

## CNC[C@H](c1ccc2ccccc2c1)[C@H](O[C@H](C)C(=O)N1CCCC1)c1ccccc1 [Compound 81]
[1]
  Ki: 14.7 nM
[2]; [5]
  pKa: 9.6
[3]
  Ki: 13 nM
[4]
  Ki: 1360 nM

## CNC[C@H](c1ccc2ccccc2c1)[C@H](OCc1nc(C(=O)OC)co1)c1ccccc1 [Compound 84]
[1]
  Ki: 16.2 nM
[2]; [5]
  pKa: 9.6
[3]
  Ki: 3.3 nM
[4]
  Ki: 39.2 nM

## CNC[C@H](Cc1cccnc1)c1ccc(Cl)c(Cl)c1 [Compound 115]
[2]; [5]
  pKa: 9.6
[2]; [6]
  pKa: 5.2
[3]
  Ki: 642 nM
[4]
  Ki: 127 nM

## CN1CCO[C@@H](c2ccccc2)[C@@H](c2ccc3ccccc3c2)C1 [Compound 123]
[1]
  Ki: 290 nM
CYP2D6
  IC50: 6600 nM
[2]; [5]
  pKa: 8.2
[3]
  Ki: 12 nM
[4]
  Ki: 379 nM

## CN1CCO[C@@H](c2ccccc2)[C@H](c2ccc3ccccc3c2)C1 [Compound 124]
[1]
  Ki: 338 nM
CYP2D6
  IC50: 3000 nM
[2]; [5]
  pKa: 8.2
[3]
  Ki: 167 nM
[4]
  Ki: 15.3 nM

## CN1C[C@H](c2ccc3ccccc3c2)[C@@H](c2ccccc2)OCC1=O [Compound 129]
[1]
  Ki: 3670 nM
CYP2D6
  IC50: 20000 nM
CYP3A4
  IC50: 20000 nM
[3]
  Ki: 3370 nM
[4]
  Ki: 43.5 nM

## NCC(Cc1ccccc1F)c1ccc2ccccc2c1 (stereo not drawn) [Compound 137]
[2]; [5]
  pKa: 9.3
[3]
  Ki: 31.8 nM
[4]
  Ki: 77.7 nM

## CNC[C@@H](c1ccc2ccccc2c1)[C@@H](O)c1cccs1 [Compound 144]
[2]; [5]
  pKa: 9.7
[3]
  Ki: 10 nM
[4]
  Ki: 113 nM

## CNCC(CCc1ccccc1)[C@@H](O)c1ccccc1 (stereo partly drawn) [Compound 147]
[1]
  Ki: 45.7 nM
[2]; [5]
  pKa: 10.1
[3]
  Ki: 800 nM
[4]
  Ki: 121 nM

## CNCCC(Oc1ccccc1OC)c1ccccc1 (stereo not drawn) [compound 177]
[3]
  Ki: 54.4 nM
